In patent publication US20240228572A1 (i2o Therapeutics, Inc., priority 2020, published 2024):
*1 amine or outer side, *2 acyl side, *3 side chain or, on linkers, in order; H or OH if unused. Where a SMILES comes first, the peptide text is derived from it. Bridges are numbered along the chain shown (N, C = ends). Side-chain parts run from the residue outwards. [ ]: non-standard residue; d: D form. The star is where a group is joined. C20 diacid = O=C(O)CCCCCCCCCCCCCCCCCCC(=O)*; γGlu = O=C(O)[C@H](CCC(=O)[*:2])N[*:1]; AEEA = NCCOCCOCC(=O)O; Aib = CC(C)(N)C(=O)O

Tests used:
[1] = target: T1, human Glucagon receptor (GCGR) (Homo sapiens, UniProt P47871); test: cAMP accumulation assay, CHO-K1 cells expressing human GCGR; format: cell-based; settings: mean pEC50, Table 10
T1 construct: A cDNA fragment encoding the full-length open reading frame of the human GCGR; expressed in transfected cells; host or cells: CHO-K1, pcDNA3.1+, Lipofectamine 2000
Text: In the presence of the non-specific cAMP/cGMP phosphodiesterase inhibitor, 3-isobutyl-1-methylxanthine (IBMX), accumulating cAMP can be measured in vitro using common detection methods. Thus, it is possible to estimate an in vitro potency (pEC50) for peptides activating each of these receptors using fit dose-response curves for cAMP accumulation.
A cDNA fragment encoding the full-length open reading frame of the cynomolgus monkey GLP-1R (Genebank accession #XM_028847603 was cloned into pcDNA3.1+ for expression in CHO-K1 cells. A cDNA fragment encoding the full-length open reading frame of the human GCGR (Genebank accession #NM_000160 was cloned into pcDNA3.1+ for expression in CHO-K1 cells. A cDNA fragment encoding the full-length open reading frame of the rat GCGR (Genebank accession #NM_12091 was cloned into pcDNA3.1+ for expression in CHO-K1 cells. A cDNA fragment encoding the full-length open reading frame of the cynomolgus monkey GCGR (Genebank accession #XM_005585255 was cloned into pcDNA3.1+ for expression in CHO-K1 cells.
On day 1, CHO-K1 cells were plated at 1.5 million cells per T75 flask in 90% F12-K media supplemented with 10% FBS. On day 3 cells were transfected with 40 mcg of each expression plasmid using Lipofectamine 2000 transfection reagent. On day 5, cells were dispensed at 1000 cells per well in white 384-well OptiPlates in 5 mcL of assay buffer consisting of 1×HBSS, 5 mM HEPES, 0.5 mM IBMX, and 0.1% casein.
Peptides were serially diluted 4-fold in assay buffer to final concentrations ranging from 1×10^−9 M to 9.5×10^−16 M. Two assay controls consisting of 50 mcM forskolin (cAMP system maximum) or assay buffer only (cAMP system minimum) were also prepared. Five microliters of each peptide-concentration, or assay control, was added to triplicate wells and incubated for thirty minutes at room temperature. During this incubation step a 4× europium labelled cAMP tracer solution and a 4× Ulight®-anti-cAMP solution (consisting of an anti-cAMP monoclonal antibody labelled with Ulight™ dye) was prepared according to the manufacturer's protocol (PerkinElmer LANCE Ultra cAMP kit). Following this incubation, 5 mcL europium labelled cAMP and 5 mcL Ulight anti-cAMP antibody was added to each well. The plate was covered to prevent evaporation and incubated for 60 minutes at room temperature in the dark. Plates were read on an Envision fluorescent plate reader (PerkinElmer).
Test values were first normalized to the system maximum and system minimum averaged values in Excel using the formula: (test value−system min average)/(system max average -system min average)*100. Normalized test values represent a baseline corrected percentage of the system maximum cAMP response induced by forskolin. Data from up to 3 replicate tests were analyzed for each peptide. Potency values were estimated using GraphPad Prism software (v7.04) by fitting data to a 4-parameter logistic curve model: Y=Bottom+(Top−Bottom)/(1+10^((LogEC50−X))). The Hill slope was constrained to 1.0. EC50 values were converted to pEC50 values using the formula: pEC50=−Log (EC50).

[2] = target: T2, human GLP-1 receptor (GLP-1R) (Homo sapiens, UniProt P43220); test: cAMP accumulation assay, CHO-K1 cells stably expressing human GLP-1R; format: cell-based; settings: cAMP accumulation, mean pEC50, Table 10
T2 construct: expressed in transfected cells
T2 sequence (P43220 24-463): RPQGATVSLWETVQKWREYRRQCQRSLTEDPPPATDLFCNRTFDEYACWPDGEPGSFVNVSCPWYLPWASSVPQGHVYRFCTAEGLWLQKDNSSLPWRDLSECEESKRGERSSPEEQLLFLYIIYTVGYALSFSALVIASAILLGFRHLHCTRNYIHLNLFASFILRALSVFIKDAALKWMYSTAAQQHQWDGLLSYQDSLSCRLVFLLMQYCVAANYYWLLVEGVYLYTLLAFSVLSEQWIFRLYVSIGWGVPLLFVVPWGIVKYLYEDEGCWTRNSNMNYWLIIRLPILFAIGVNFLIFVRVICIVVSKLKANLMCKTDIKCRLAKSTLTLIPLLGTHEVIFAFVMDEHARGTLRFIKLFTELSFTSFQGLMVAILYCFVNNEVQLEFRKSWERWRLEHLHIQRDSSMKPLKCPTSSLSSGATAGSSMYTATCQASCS

T1 sequence (P47871 26-477): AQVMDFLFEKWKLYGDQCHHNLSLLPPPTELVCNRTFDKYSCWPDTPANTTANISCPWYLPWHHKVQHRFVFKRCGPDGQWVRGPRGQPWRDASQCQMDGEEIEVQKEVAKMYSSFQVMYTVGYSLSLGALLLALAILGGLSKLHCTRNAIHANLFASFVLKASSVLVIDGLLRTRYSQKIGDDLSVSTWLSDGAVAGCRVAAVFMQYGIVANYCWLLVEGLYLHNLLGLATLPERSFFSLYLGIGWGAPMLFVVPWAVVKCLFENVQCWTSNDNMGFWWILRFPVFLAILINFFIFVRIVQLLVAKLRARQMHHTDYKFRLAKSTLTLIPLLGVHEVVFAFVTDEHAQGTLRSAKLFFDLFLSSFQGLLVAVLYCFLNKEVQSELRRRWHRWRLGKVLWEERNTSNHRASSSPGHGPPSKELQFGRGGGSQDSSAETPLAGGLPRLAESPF

Structure (SMILES) | EC50 [1] | EC50 [2]
CC(C)C[C@H](NC(=O)[C@H](Cc1ccc(O)cc1)NC(=O)[C@H](CCCCN)NC(=O)[C@H](CO)NC(=O)[C@H](Cc1ccc(O)cc1)NC(=O)[C@H](CC(=O)O)NC(=O)[C@H](CO)NC(=O)[C@@H](NC(=O)[C@H](Cc1ccccc1)NC(=O)[C@@H](NC(=O)CNC(=O)[C@H](Cc1c[nH]cn1)NC(=O)[C@H](CO)NC(=O)[C@@H](N)Cc1ccc(O)cc1)[C@@H](C)O)[C@@H](C)O)C(=O)N[C@@H](CC(=O)O)C(=O)N[C@@H](CCCCNC(=O)CC[C@H](NC(=O)CC[C@H](NC(=O)COCCOCCNC(=O)CCCCCCCCCCCCCCCCCCC(=O)O)C(=O)O)C(=O)O)C(=O)N[C@@H](CCCCN)C(=O)N[C@@H](Cc1ccc(O)cc1)C(=O)N[C@@H](C)C(=O)N[C@H]1CCC(=O)NCCCC[C@@H](C(=O)N[C@@H](Cc2c[nH]c3ccccc23)C(=O)N[C@@H](CC(C)C)C(=O)N[C@@H](CCC(=O)O)C(=O)N[C@@H](CC(=O)O)C(=O)N[C@@H](CCC(=O)O)C(=O)N2CCC[C@H]2C(=O)N[C@@H](CO)C(=O)N[C@@H](CO)C(=O)NCC(=O)N[C@@H](CO)C(=O)N2CCC[C@H]2C(=O)N2CCC[C@H]2C(=O)N2CCC[C@H]2C(=O)N[C@@H](CO)C(=O)O)NC(=O)[C@H](C(C)C)NC(=O)[C@H](Cc2ccccc2)NC(=O)[C@H](CCCCN)NC1=O [Compound A33] (H-YSHGTFTSDYSKYLDK([γGlu-γGlu-AEEA-C20 diacid])KYAEKFVKWLEDEPSSGSPPPS-OH; lactam 20-24; N-terminus assumed) | 1.26 pM | > 1000 pM
CC(C)C[C@H](NC(=O)[C@H](Cc1ccc(O)cc1)NC(=O)[C@H](CCCCN)NC(=O)[C@H](CO)NC(=O)[C@H](Cc1ccc(O)cc1)NC(=O)[C@H](CC(=O)O)NC(=O)[C@H](CO)NC(=O)[C@@H](NC(=O)[C@H](Cc1ccccc1)NC(=O)[C@@H](NC(=O)CNC(=O)[C@H](Cc1c[nH]cn1)NC(=O)[C@H](CO)NC(=O)[C@@H](N)Cc1ccc(O)cc1)[C@@H](C)O)[C@@H](C)O)C(=O)N[C@@H](CC(=O)O)C(=O)N[C@@H](CCCCNC(=O)CC[C@H](NC(=O)CC[C@H](NC(=O)COCCOCCNC(=O)CCCCCCCCCCCCCCCCCCC(=O)O)C(=O)O)C(=O)O)C(=O)N[C@@H](CCCCN)C(=O)N[C@@H](Cc1ccc(O)cc1)C(=O)N[C@@H](C)C(=O)N[C@@H](CCCCN)C(=O)N[C@@H](CCC(=O)O)C(=O)N[C@@H](Cc1ccccc1)C(=O)N[C@H](C(=O)NC(C)(C)C(=O)N[C@@H](Cc1c[nH]c2ccccc12)C(=O)N[C@@H](CC(C)C)C(=O)N[C@@H](CCC(=O)O)C(=O)N[C@@H](CO)C(=O)N[C@@H](CCC(=O)O)C(=O)N1CCC[C@H]1C(=O)N[C@@H](CO)C(=O)N[C@@H](CO)C(=O)NCC(=O)N[C@@H](C)C(=O)N1CCC[C@H]1C(=O)N1CCC[C@H]1C(=O)N1CCC[C@H]1C(=O)N[C@@H](CO)C(=O)O)C(C)C [Compound A22] (H-YSHGTFTSDYSKYLDK([γGlu-γGlu-AEEA-C20 diacid])KYAKEFV[Aib]WLESEPSSGAPPPS-OH; N-terminus assumed) | 2 pM | > 1000 pM
CC(C)C[C@H](NC(=O)[C@H](Cc1ccc(O)cc1)NC(=O)[C@H](CCCCN)NC(=O)[C@H](CO)NC(=O)[C@H](Cc1ccc(O)cc1)NC(=O)[C@H](CC(=O)O)NC(=O)[C@H](CO)NC(=O)[C@@H](NC(=O)[C@H](Cc1ccccc1)NC(=O)[C@@H](NC(=O)CNC(=O)[C@H](Cc1c[nH]cn1)NC(=O)[C@H](CO)NC(=O)[C@@H](N)Cc1ccc(O)cc1)[C@@H](C)O)[C@@H](C)O)C(=O)N[C@@H](CC(=O)O)C(=O)NC(C)(C)C(=O)N[C@@H](CCCCN)C(=O)N[C@@H](Cc1ccc(O)cc1)C(=O)N[C@@H](C)C(=O)N[C@@H](CCC(N)=O)C(=O)N[C@@H](CCCCNC(=O)CC[C@H](NC(=O)CC[C@H](NC(=O)CCCCCCCCCCCCCCCCCCC(=O)O)C(=O)O)C(=O)O)C(=O)N[C@@H](Cc1ccccc1)C(=O)N[C@H](C(=O)NC(C)(C)C(=O)N[C@@H](Cc1c[nH]c2ccccc12)C(=O)N[C@@H](CC(C)C)C(=O)N[C@@H](CCC(=O)O)C(=O)N[C@@H](CC(=O)O)C(=O)N[C@@H](CCC(=O)O)C(=O)N1CCC[C@H]1C(=O)N[C@@H](CO)C(=O)N[C@@H](CO)C(=O)NCC(=O)N[C@@H](C)C(=O)N1CCC[C@H]1C(=O)N1CCC[C@H]1C(=O)N1CCC[C@H]1C(=O)N[C@@H](CO)C(=O)O)C(C)C [Compound A14] (H-YSHGTFTSDYSKYLD[Aib]KYAQK([γGlu-γGlu-C20 diacid])FV[Aib]WLEDEPSSGAPPPS-OH; N-terminus assumed) | 6.31 pM | > 1000 pM
CC(C)C[C@H](NC(=O)[C@H](Cc1ccc(O)cc1)NC(=O)[C@H](CCCCN)NC(=O)[C@H](CO)NC(=O)[C@H](Cc1ccc(O)cc1)NC(=O)[C@H](CC(=O)O)NC(=O)[C@H](CO)NC(=O)[C@@H](NC(=O)[C@H](Cc1ccccc1)NC(=O)[C@@H](NC(=O)CNC(=O)[C@H](Cc1c[nH]cn1)NC(=O)[C@H](CO)NC(=O)[C@@H](N)Cc1ccc(O)cc1)[C@@H](C)O)[C@@H](C)O)C(=O)N[C@@H](CC(=O)O)C(=O)N[C@@H](CCCCNC(=O)CC[C@H](NC(=O)CC[C@H](NC(=O)COCCOCCNC(=O)CCCCCCCCCCCCCCCCCCC(=O)O)C(=O)O)C(=O)O)C(=O)N[C@@H](CCCCN)C(=O)N[C@@H](Cc1ccc(O)cc1)C(=O)N[C@@H](C)C(=O)N[C@@H](CCC(N)=O)C(=O)N[C@@H](CCC(=O)O)C(=O)N[C@@H](Cc1ccccc1)C(=O)NC(C)(C)C(=O)N[C@@H](CCC(=O)O)C(=O)N[C@@H](Cc1c[nH]c2ccccc12)C(=O)N[C@@H](CC(C)C)C(=O)N[C@@H](CCC(=O)O)C(=O)N[C@@H](CC(=O)O)C(=O)N[C@@H](CCC(=O)O)C(=O)N1CCC[C@H]1C(=O)N[C@@H](CO)C(=O)N[C@@H](CO)C(=O)NCC(=O)N[C@@H](C)C(=O)N1CCC[C@H]1C(=O)N1CCC[C@H]1C(=O)N1CCC[C@H]1C(=O)N[C@@H](CO)C(=O)O [Compound A8] (H-YSHGTFTSDYSKYLDK([γGlu-γGlu-AEEA-C20 diacid])KYAQEF[Aib]EWLEDEPSSGAPPPS-OH; N-terminus assumed) | 126 pM | > 1000 pM
CC(C)C[C@H](NC(=O)[C@H](Cc1ccc(O)cc1)NC(=O)[C@H](CCCCN)NC(=O)[C@H](CO)NC(=O)[C@H](Cc1ccc(O)cc1)NC(=O)[C@H](CC(=O)O)NC(=O)[C@H](CO)NC(=O)[C@@H](NC(=O)[C@H](Cc1ccccc1)NC(=O)[C@@H](NC(=O)CNC(=O)[C@H](Cc1c[nH]cn1)NC(=O)[C@H](CO)NC(=O)[C@@H](N)Cc1ccc(O)cc1)[C@@H](C)O)[C@@H](C)O)C(=O)N[C@@H](CC(=O)O)C(=O)N[C@@H](CCCCNC(=O)CC[C@H](NC(=O)CC[C@H](NC(=O)COCCOCCNC(=O)CCCCCCCCCCCCCCCCCCC(=O)O)C(=O)O)C(=O)O)C(=O)N[C@@H](CCCCN)C(=O)N[C@@H](Cc1ccc(O)cc1)C(=O)N[C@@H](C)C(=O)N[C@H]1CCC(=O)NCCCC[C@@H](C(=O)N[C@@H](Cc2c[nH]c3ccccc23)C(=O)N[C@@H](CC(C)C)C(=O)N[C@@H](CCC(=O)O)C(=O)N[C@@H](CO)C(=O)N[C@@H](CCC(=O)O)C(=O)N2CCC[C@H]2C(=O)N[C@@H](CO)C(=O)N[C@@H](CO)C(=O)NCC(=O)N[C@@H](C)C(=O)N2CCC[C@H]2C(=O)N2CCC[C@H]2C(=O)N2CCC[C@H]2C(=O)N[C@@H](CO)C(=O)O)NC(=O)[C@H](C(C)C)NC(=O)[C@H](Cc2ccccc2)NC(=O)[C@H](CCCCN)NC1=O [Compound A28] (H-YSHGTFTSDYSKYLDK([γGlu-γGlu-AEEA-C20 diacid])KYAEKFVKWLESEPSSGAPPPS-OH; lactam 20-24; N-terminus assumed) | 2 pM | > 1000 pM
